Consider one molecule from patent US9834773B2, “Methods and means for metabolic engineering and improved product formation by micro-organisms” (Universiteit Leiden, priority 2006, dated 2017).

SMILES strings stand for the structures.

In experiment [1] the test system is S. coelicolor M145, M510, M511, M512. Description: Pigmented antibiotic (actinorhodin, undecylprodigiosin) production on MM agar plates with or without GlcNAc. It is filed as cell-based, Streptomyces coelicolor. The source says: FIG. 2. Effect of dasR on development and antibiotic production. (A) Antibiotic production by S. coelicolor M145 and its dasR mutant BAP29 on minimal medium agar plates with or without GlcNAc. […] The latter is in line with our discovery that (i) ActV4A is enhanced in the mutant (FIG. 4) and (ii) the identification of a DasR-bound dre upstream of the pathway-specific activator genes actII-ORF4 for actinorhodin production and redZ for undecylprodigiosin production. Unexpectedly, the dasR mutant grown on minimal media with GlcNAc presents the expression of a yet unchartacterized green pigment. (B) Overexpression of DasR causes developmental arrest. Left, S. coelicolor M145 with control plasmid pUWL-KS; right, the same strain with a plasmid over-expressing dasR (grown for 4 days at 30° C.); note the almost complete lack of aerial hyphae (white) in the strain over-expressing DasR; (C) Scanning electron micrographs of aerial hyphae and spores of S. coelicolor M145 and the dasR mutant BAP29. […] Bars represent 5 μm. (D) Transmission electron micrographs of spores of M145 (left) and BAP29 (right). Arrows indicate the voids between the cell wall and the membrane. FD, full detachment; ID, incomplete detachment.
E. coli DH5α, and BL21(DE3) were used for subcloning and DasR overexpression experiments. S. coelicolor M145, M510 (M145 ΔredD), M511 (M145 ΔactII-IV) and M512 (M145 ΔactII-IV ΔredD) (Floriano and Bibb, 1996) and Streptomzyces lividans 1326 were all obtained from the John Innes Centre strain collection, Streptomyces avermitilis NRRL 8165 (MA-4680), Streptonzyces hygroscopicus ATCC27438, Streptomyces limosus ATCC 19778, Streptomyces rinzosus ATCC 10970, Streptonzyces roseosporus ATCC 31568 and Streptonzyces venezuelae ATCC15439 were obtained from the ATCC strain collection and Streptomyces acrinzycini DSM 40540, Streptomyces cinnanzonensis DSM 40467, Streptomyces clavuligerus NRRL 3585, Streptomyces collinus DSM 40733 and Streptomyces griseus NRRL B2682 from the DSMZ strain collection. The dasR mutant BAP29 (ΔdasR::accC4) was created by replacing the coding region of the gene by the apramycin resistance gene cassette, using plasmid pWHM3, according to a routine procedure (Nothaft et al., 2003). The same strategy was used to create the knock-out mutants for ptsH (BAP1), crr (BAP2), ptsI (BAP3), nagE1 (BAP4), nagE2 (BAP5), and nagE1/E2 (BAP6). BAP1-3 were published previously (Nothaft et al., 2003). S. coelicolor strains were grown at 28° C. using tryptic soy broth without dextrose as complex medium (TSB, Difco) or minimal medium (van Wezel et al., 2005). E. coli cultures were grown in Luria-Bertani broth (LB) at 37° C. Phenotypic characterization of mutants was done on minimal medium agar plates with various carbon sources as indicated in the text (Kieser et al., 2000). Quantification of Act and Red was performed as described previously (Martinez-Costa et al., 1996).
Arguing from the regulatory pathway deduced from the newly extended characterization of the DasR regulon (FIG. 22), we anticipated that DasR-dependent transport and phosphorylation of GlcNAc via the PTS could be a decisive signal to trigger actinorhodin and undecylprodigiosin biosynthesis in S. coelicolor. This hypothesis was tested by plating S. coelicolor M510 (ΔredD), M511 (ΔactII-ORF4) and M512 (ΔredD, ΔactII-ORF4) on MM agar plates with or without GlcNAc. […]

For experiment [2], the target named is DasR (Streptomyces coelicolor, UniProt Q9K492). Description: EMSA binding interference experiment: ability of compounds to interfere with binding of DasR to the nagB and crr promoters. To be noted: for effect on formation of the complex of DasR with the nagB promoter (EMSA): 10 nM fluorescent probe, 3 μM purified DasR, 500-fold excess of non-specific DNA, 50, 100, 150, and 200 mM compound. The method, then: FIG. 12. […] EMSAs were performed with 10 nM fluorescent probe, 3 μM purified DasR, and 500-fold excess of non-specific DNA.
EMSAs were performed with fluorescent probes (10 nM) with an ALF express sequencer (Filee et al., 2001). Purified DasR (3 μM) and 1000-fold excess of non-specific DNA were used in the reaction mixture. Predicted cis-acting elements were taken from the promoter regions of actII-ORF4 (SCO5085; 5′-[…]-3′ (SEQ ID NO:530)), and redZ (SCO5881; 5′-[…]-3′ (SEQ ID NO:531)). Known cis-acting elements upstream of crr (SCO1390; […]-3′ (SEQ ID NO:532)), and crp (SCO3571; 5′-[…]-3′ (SEQ ID NO:533)) were used as positive and negative controls, respectively. The 16 nt dre sites are underlined.
A pivotal question is what is the effector molecule that modulates DasR? As shown in here, many of the targets for DasR relate to the generation (chitinolytic system), transport (PTS^GlcNAc), and metabolism (glycolysis via fructose 6-P) of N-acetylglucosamine. We therefore looked for the inducer among the intermediate molecules that gravitate around aminosugar metabolism. A binding interference experiment was set up where the ability of compounds to interfere with binding of dasR to the nagB and crr promoters was tested. […] The finding that glucosamine-6-P serves as an effector of DasR is explained by its central position at the metabolic crossroads between (GlcNAc)n extracellular degradation, N-acetylglucosamine transport and intracellular metabolism, lipid and nitrogen metabolism, glycolysis, and peptidoglycan synthesis (FIG. 13).

DasR, sequence (Q9K492 whole entry): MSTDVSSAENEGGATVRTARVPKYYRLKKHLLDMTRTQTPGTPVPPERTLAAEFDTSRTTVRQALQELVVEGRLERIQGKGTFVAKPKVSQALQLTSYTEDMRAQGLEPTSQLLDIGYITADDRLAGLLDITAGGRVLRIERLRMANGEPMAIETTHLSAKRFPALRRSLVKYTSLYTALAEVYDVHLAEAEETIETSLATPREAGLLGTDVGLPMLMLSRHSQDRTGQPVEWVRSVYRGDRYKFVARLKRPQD

With `CC(=O)N[C@H]1C(O)O[C@H](CO)[C@@H](O)[C@@H]1O` (some centres unmarked) [N-acetylglucosamine], in experiment [1] (S. coelicolor M145, minimal medium agar plates with or without GlcNAc), the “induction of the pigmented antibiotics actinorhodin and undecylprodigiosin” value was “required for induction”. Also, the “production of Act (actinorhodin)” value in experiment [1] (S. coelicolor M510 (ΔredD), MM agar, GlcNAc 10 mM, five days) is “induced”. Further, in experiment [1] (S. coelicolor M511 (ΔactII-ORF4), MM agar, GlcNAc 10 mM, five days), the “production of Red (undecylprodigiosin)” value was “induced”. Also, the pigmented antibiotic production entry in experiment [1] (S. coelicolor M512 (ΔredD, ΔactII-ORF4), MM agar, GlcNAc 10 mM) was “No pigmented antibiotic was observed”. Also, the “concentration at which the 'GlcNAc effect' was observed” value in experiment [1] (effect of GlcNAc on antibiotic production and development) was greater than 5 mM. For the same molecule, the “effect on formation of the complex of DasR with the nagB promoter (EMSA)” value in experiment [2] is “it was the only of the compounds tested that prevented the formation of a complex”; in experiment [2] (listed as GlcNAc) it was “no effect”. In experiment [2] (crr promoter, data not shown), the “effect on formation of the complex of DasR with the crr promoter region (EMSA)” value is given as “it was the only of the compounds tested that prevented the formation of a complex”.
